Test results published in US5202437A, “3-pyrrolidinylthio-1-azabicyclo(3.2.0)-hept-2-ene-2-carboxylic acid compounds” (Fujisawa Pharmaceutical Company, Ltd., priority 1988, dated 1993).
Values after ≈ are worked out from the molar mass of the structure shown.

System: P. aeruginosa 26
Experiment: in vitro Antimicrobial Activity (two-fold agar-plate dilution method)
Type: cell-based
Details: Pseudomonas aeruginosa, heart infusion agar, 10^6 viable cells per ml, 37° C. for 20 hours, read-out: minimal inhibitory concentration (MIC)
Procedure: in vitro Antimicrobial Activity was determined by the two-fold agar-plate dilution method as described blow.
One loopful of an overnight culture of a test strain in Trypticase-soy broth (10^6 viable cells per ml) was streaked on heart infusion agar (HI-agar) containing graded concentrations of the test compound, and the minimal inhibitory concentration (MIC) was expressed in terms of μg/ml after incubation at 37° C. for 20 hours.
The compound of Example 2.

MIC: 0.39 µg/mL (≈ 0.95 µM)
SMILES: C[C@@H](O)[C@H]1C(=O)N2C(C(=O)O)=C(S[C@@H]3CN[C@H](CN4CCNCC4)C3)[C@H](C)[C@H]12 [Example 2, (4R,5S,6S)-6-[(1R)-1-hydroxyethyl]-4-methyl-7-oxo-3-[(2S,4S)-2-(piperazin-1-yl)methylpyrrolidin-4-yl]thio-1-azabicyclo[3.2.0]hept-2-ene-2-carboxylic acid]
